Measured values taken from patent publication US20060204502A1 (priority 2004, published 2006).
pKi: −log10 of the molar value.

Tests used:
[1] = molecular target: T1, rat A1 Adenosine receptor (Rattus norvegicus, UniProt P25099); assay: Rat A1 adenosine receptor binding, [3H]-DPCPX, rat brain membranes; settings: read-out: rA1 (Ki)
T1 construct: from tissue; host or cells: whole brain (minus brainstem, striatum and cerebellum) of male Wistar rats
T1 sequence (P25099 1-326): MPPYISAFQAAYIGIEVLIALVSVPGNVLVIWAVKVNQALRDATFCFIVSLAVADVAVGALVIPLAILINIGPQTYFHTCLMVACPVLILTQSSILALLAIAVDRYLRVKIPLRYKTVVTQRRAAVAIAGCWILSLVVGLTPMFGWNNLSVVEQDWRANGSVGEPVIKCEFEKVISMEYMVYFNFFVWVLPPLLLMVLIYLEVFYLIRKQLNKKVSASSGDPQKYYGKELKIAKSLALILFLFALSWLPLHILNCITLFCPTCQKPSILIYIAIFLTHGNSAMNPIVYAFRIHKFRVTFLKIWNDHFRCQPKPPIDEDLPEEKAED
Method: Membrane preparations: Male Wistar rats (200-250 g) can be decapitated and the whole brain (minug brainstem, striatum and cerebellum) dissected on ice. The brain tissues can be disrupted in a Polytron (setting 5) in 20 vols of 50 mM Tris HCl, pH 7.4. […] After 30 min incubation at 37° C., the membranes can be centrifuged and the pellets stored at −70° C. Striatal tissues can be homogenized with a Polytron in 25 vol of 50 mM Tris HCl buffer containing 10 mM MgCl2 pH 7.4. […] After 30 min incubation at 37° C., membranes can be centrifuged and the pellet stored at −70° C. […] Incubation times are typically 120 min at 25° C.
Radioligand binding assays may comprise the following: Binding of [^3H]-SCH 58261 (5-amino-7-(2-phenylethyl)-2-(2-furyl)-pyrazolo[4,3-e]-1,2,4-triazolo[1,5-c]pyrimidine) to rat striatal membranes (100 ug of protein/assay) can be performed according to methods described in Zocchi et al., 1996, J. Pharm. and Exper. […] In competition studies, at least 6-8 different concentrations of examined compounds should be used. […] Incubation time is typically 60 min at 25° C. Bound and free radioactivity can be separated by filtering the assay mixture through Whatman GF/B glass-fiber filters using a Brandel cell harvester (Gaithersburg, Md., USA). […] The filter bound radioactivity can be measured, for example, by liquid scintillation spectrometry. […]

[2] = test system: Human Lung Carcinoma SKMES; assay: MTT growth inhibitory assay, SKMES; type: cell-based; settings: SKMES cells, A3 antagonist at 0.5 μg/ml
Method: (§1) Interpretation of the EF is dependent upon the concentrations of A3 receptor antagonist tested. For example, when using very low concentrations of A3 receptor antagonist, any EF above 1.0 is synergistic if the A3 receptor antagonist concentration is below the threshold of cell growth inhibition.
(§2) The cells are sub-cultured twice a week.
(§3) Vinblastine sulfate salt was obtained from Sigma Chemical Co., (V1377). Irinotecan was diluted with culture medium. All other agents were dissolved in 100% DMSO at appropriate concentrations. The DMSO stock solutions were diluted 100-fold with growth medium so that the final DMSO concentration was 1%.

Human Melanoma A375 = assay: MTT growth inhibitory assay, A375; settings: A375 cells
Method: An exemplary assay may comprise the following steps: Cells (1000-1500 cells/well) are seeded in a 96-well micro culture plate in a total volume of 100 μl/well. After overnight incubation in a humidified incubator at 37° C. with 5% CO2-95% air, chemotherapeutic drug solutions diluted with culture medium at various concentrations are added in the amount of 100 μl to each well. The plates are placed in a humidified incubator at 37° C. with 5% CO2-95% air for 7-10 days. The plates are then centrifuged briefly and 100 μl of the growth medium is removed. Cell cultures are incubated with 50 μl of MTT [3-(4,5-dimethylthiazol-2-yl)-2,5-diphenyl-tetrazolium bromide] reagent (1 mg/ml in Dulbecco's phosphate-buffered saline) for 4 hr at 37° C. The resultant purple formazan precipitate is solubilized with 200 μl of 0.04 N HCl in isopropanol. Absorbance is measured at a wavelength of 595 nm and at a reference wavelength of 655 nm using a Bio-Rad Model 3550 Microplate Reader. Preferably, all tests are run in duplicate for each dose level. […] The EZED50 computer program estimates the concentration of agent that inhibits cell growth by 50% as compared to the control cells. This is termed the IC50 and is determined by curve fitting test data using the following four logistic equation. [formula]
If testing concentrations are properly selected (i.e., no or little growth inhibition at low concentrations and complete inhibition at high concentrations), EZED50 program fits the data extremely well and estimates the IC50 value accurately. […] In these instances, the data could be re-analyzed by fixing the Amax value.
In this case, the IC50 could be estimated more accurately if both the Amax and Amin values are fixed. Although it may be feasible to estimate IC50 value by fixing Amax and/or Amax and Amin without repeating the experiment, the best way to determine the IC50 accurately is to decrease or increase the concentrations of the test agent and repeat the test.
Inhibitory assay testing is also used to determine enhanced therapeutic effects from combining A3 receptor antagonists with other tumor inhibiting agents. The inhibitory cell growth assays are run with and without selected concentrations of A3 receptor antagonists. An enhanced therapeutic effect is present when the IC50 of the tumor inhibiting agent is lower with the A3 receptor antagonist.
Quantitatively, the enhancement factor (EF) is calculated by dividing the IC50 value of the tumor inhibiting agent for a tumor cell line by the IC50 value of the agent with A3 receptor antagonist for the same cell line: [formula]
The cells are cultured in a T25 Falcon Tissue Culture flask in a humidified incubator at 37° C. with 5% CO2-95% air. The cells are sub-cultured twice a week.

[3] = test system: Human Pancreatic Cancer Panc-1; assay: MTT growth inhibitory assay, Panc-1; type: cell-based; settings: Panc-1 cells, A3 antagonist at 0.5 μg/ml
Method: as §1, §2, §3

[4] = test system: Human Colon Carcinoma HT29; assay: MTT growth inhibitory assay, HT29; type: cell-based; settings: HT29 cells
Method: as §1, §2, §3

[5] = molecular target: T2, rat A2A Adenosine receptor (Rattus norvegicus, UniProt P30543); assay: Rat A2A adenosine receptor binding, [3H]-SCH 58261, rat striatal membranes; settings: read-out: rA2A (Ki)
T2 construct: from tissue; host or cells: rat striatum (male Wistar rats)
T2 sequence (P30543 whole entry): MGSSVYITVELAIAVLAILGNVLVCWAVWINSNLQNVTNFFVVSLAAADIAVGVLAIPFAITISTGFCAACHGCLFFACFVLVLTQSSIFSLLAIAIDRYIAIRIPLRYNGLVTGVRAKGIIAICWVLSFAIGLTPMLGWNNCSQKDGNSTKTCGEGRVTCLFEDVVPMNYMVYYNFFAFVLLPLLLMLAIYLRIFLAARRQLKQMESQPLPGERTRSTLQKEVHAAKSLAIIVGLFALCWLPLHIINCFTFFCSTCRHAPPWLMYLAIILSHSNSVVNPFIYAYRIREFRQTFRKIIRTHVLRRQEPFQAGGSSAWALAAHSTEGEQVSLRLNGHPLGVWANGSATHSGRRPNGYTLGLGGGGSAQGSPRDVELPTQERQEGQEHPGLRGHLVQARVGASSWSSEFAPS

[6] = enhancement of paclitaxel IC50, A3 antagonist at 0.5 μg/ml

Structure (SMILES): CN(C)c1ccc(NC(=O)Nc2nc3nn(C)cc3c3nc(-c4ccco4)nn23)cc1 [IL-11, N-1-(4-dimethylamino-phenyl)-N′-5-[8-methyl-2-(2-furyl)-pyrazolo[4,3-e]1,2,4-triazolo[1,5-c]pyrimidine]-urea]
- pKi [1]: < 5.00
- Enhancement Factor ([2]; enhancement of docetaxel IC50): 1.9
- Enhancement Factor ([2]; enhancement of irinotecan HCL IC50): 1.9
- Enhancement Factor ([2]; enhancement of paclitaxel IC50): 4.2
- Enhancement Factor ([2]; enhancement of vinblastine IC50): 1.6
- Enhancement Factor (Human Melanoma A375; enhancement of docetaxel IC50, A3 antagonist at 0.5 μg/ml): 5.3
- Enhancement Factor (Human Melanoma A375; enhancement of docetaxel IC50, A3 antagonist at 5 μg/ml): 6.5
- Enhancement Factor (Human Melanoma A375; [6]): 3.1
- Enhancement Factor (Human Melanoma A375; enhancement of paclitaxel IC50, A3 antagonist at 5 μg/ml): 9.6
- Enhancement Factor ([3]; enhancement of docetaxel IC50): 1.4
- Enhancement Factor ([3]; enhancement of paclitaxel IC50): 1.8
- Enhancement Factor ([4]; enhancement of docetaxel IC50, A3 antagonist at 0.05 μg/ml): 6.4
- Enhancement Factor ([4]; enhancement of doxorubicin IC50, A3 antagonist at 0.5 μg/ml): 1.2
- Enhancement Factor ([4]; enhancement of irinotecan IC50, A3 antagonist at 0.5 μg/ml): 1.1
- Enhancement Factor [4, 6]: 2.5
- pKi [5]: < 5.00
